The target of data set [1] is T1, Hepatic sodium/bile acid cotransporter (Rattus norvegicus, UniProt P26435).
T1 sequence (P26435 whole entry): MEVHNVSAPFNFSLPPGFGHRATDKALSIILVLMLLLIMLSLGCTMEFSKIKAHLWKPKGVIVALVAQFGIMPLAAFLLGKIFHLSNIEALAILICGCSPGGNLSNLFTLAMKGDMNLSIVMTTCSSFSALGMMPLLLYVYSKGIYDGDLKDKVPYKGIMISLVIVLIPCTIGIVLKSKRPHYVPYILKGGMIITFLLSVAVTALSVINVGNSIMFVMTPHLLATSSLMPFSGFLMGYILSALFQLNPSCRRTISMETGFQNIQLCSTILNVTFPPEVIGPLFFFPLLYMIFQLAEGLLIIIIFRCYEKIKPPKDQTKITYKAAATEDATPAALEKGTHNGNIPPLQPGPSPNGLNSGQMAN
Description: TP_TRANSPORTER: Western in vivo, liver of SD rat. In kind it is functional, organism-based, Sprague-Dawley.

In data set [2] the target is T1, Hepatic sodium/bile acid cotransporter. Kind of data set: TP_TRANSPORTER: Northern blot in vivo, liver of SD rat. Format: functional, organism-based, Sprague-Dawley.

With `CCCCCCCCCCCCCC(=O)OC(CCCCCCCCCCC)CC(=O)OC1C(NC(=O)CC(CCCCCCCCCCC)OC(=O)CCCCCCCCCCC)C(OC2CC(OC(=O)CC(O)CCCCCCCCCCC)C(NC(=O)CC(O)CCCCCCCCCCC)C(O)O2)OC(CO)C1OP(=O)(O)O` (configuration not stated), the Activity entry in data set [1] and in data set [2] was “inducer [Decrease]” in each case.
